The source of these data is patent US8110605B2, “Compound for inactivating viruses and bacteria and method of making same” (priority 2009, dated 2012).

In experiment [1] the test system is Tamiflu™-resistant strain H1N1 influenza virus (A/TW/066/09). The format is cell-based.
The test system of experiment [2] is Tamiflu™-resistant H1N1 subtype influenza virus (A/TW/066/09) virions.

SMILES strings stand for the structures. Where “and” joins values, the source holds several entries; their conditions need not be identical. Equal entries are not always repeated. Where two headings read alike, the source gives them in different places.

In the case of `O=C(O)C(CCCCCCCCCCS)C(=O)O` [2-(10-mercaptodecyl)-propanedioic acid], in experiment [1], the “concentration protecting cells against infection by Tamiflu-resistant H1N1 influenza virus (as low as)” value was determined as 30 ppm. For the same compound, the “CPE, Tamiflu-resistant H1N1 influenza virus treated with compound” value in experiment [1] (3 ppm) is “+”; in experiment [1] (30 ppm), “−”; in experiment [1] (100 ppm), “−”; in experiment [1] (300 ppm), “−”; in experiment [1] (1,000 ppm), “CTX”; in experiment [1] (3,000 ppm) it was “CTX”. Also, in experiment [2], the “maximum height of particles (AFM cursor profile)” value is ~6.95 nm and ~5.28 nm. Also, the “viral morphology by AFM” value in experiment [2] was “disrupted and somewhat flattened”. For the same compound, the results for the “calculated RMS height of treated particles” value in experiment [2] (30 ppm) and in experiment [2] (300 ppm) were 7.09±0.42 nm and 5.39±0.23 nm, respectively.
